Data as given in patent US12491156B2, “Carrier particles for dry powder formulations for inhalation” (Chiesi Farmaceutici S.p.A., priority 2019, dated 2025).

Test: Aerosol performances by Next Generation Impactor (NGI)
Type: physicochemical
Procedure: The evaluation of the aerosol performances was carried out using the Next Generation Impactor (NGI) according to the conditions reported in the European Pharmacopeia 8.5th Ed 2015, par 2.9.18, pages 309-320. After aerosolization of 3 doses from the inhaler device, the NGI apparatus was disassembled and the amounts of drug deposited in the stages were recovered by washing with a 50:50 v/v water:acetonitrile mixture and then quantified by High-Performance Liquid Chromatography (HPLC). The following parameters, were calculated: i) the delivered dose which is the amount of drug delivered from the device recovered in the all parts of impactor; ii) the fine particle mass (FPM) which is the amount of delivered dose having a particle size equal to or lower than 5.0 micron; iii) the fine particle fraction (FPF) which is the ratio between the fine particle mass and the delivered dose; iv) the MMAD. The evaluation of the aerosol performances was performed as reported in Example 1. […]

[1] = Example 4 formulation, Multidose DPI
[2] = Example 4 formulation, Single Dose DPI (RS01)
[3] = Example 5 formulation, 1 mg single dose, single dose DPI RS01
[4] = Example 5 formulation, 4 mg single dose, single dose DPI RS01

Delivered Dose (Example 1 formulation (3000 μg BDP per 10 mg shot), multidose DPI of WO 2016/000983, NGI, 3 doses) [mg]	MMAD (Example 1 formulation, multidose DPI) [μm]	Fine Particle Mass (Example 1 formulation, multidose DPI, particle size equal to or lower than 5.0 micron) [mg]	Fine Particle Fraction (Example 1 formulation, multidose DPI, ratio fine particle mass/delivered dose) [%]	Fine Particle Fraction [1] [%]	Fine Particle Mass [1] [mg]	MMAD [1] [μm]	Delivered Dose (Example 4 formulation, Multidose DPI (WO 2016/000983)) [mg]	Fine Particle Fraction [2] [%]	Fine Particle Mass [2] [mg]	MMAD [2] [μm]	Delivered Dose (Example 4 formulation, Single Dose DPI (RS01 of Plastiape)) [mg]	Delivered Dose [3] [mg]	Fine Particle Fraction [3] [%]	Fine Particle Mass [3] [mg]	MMAD [3] [μm]	Delivered Dose [4] [mg]	Fine Particle Fraction [4] [%]	Fine Particle Mass [4] [mg]	MMAD [4] [μm]	SMILES
2.16	2.26	0.87	38.5	–	–	–	–	–	–	–	–	–	–	–	–	–	–	–	–	CCC(=O)OCC(=O)[C@@]1(OC(=O)CC)[C@@H](C)C[C@H]2[C@@H]3CCC4=CC(=O)C=C[C@]4(C)[C@@]3(Cl)[C@@H](O)C[C@@]21C [BDP, beclometasone dipropionate, reference compound]
–	–	–	–	41.7	0.8	2.09	1.92	77.1	1.18	1.88	1.53	0.81	71.6	0.58	2.15	2.88	73.9	2.13	1.85	COC(=O)C1=C(C)N(c2cccc(C(F)(F)F)c2)c2n[nH]c(=O)n2[C@@H]1c1ccc(C#N)cc1CC[N+](C)(C)C [CHF 6333]
